Laboratory results: ChEMBL document CHEMBL1201862, “PubChem BioAssay data set” (2004)
Calls of active or inactive are those of the source.

Legend:
[1] = molecular target: Peroxisome proliferator-activated receptor gamma/Nuclear receptor corepressor 2 (Homo sapiens, UniProt P37231+Q9Y618); format: functional
Streptokinase A = molecular target: T1, Streptokinase A (Streptococcus pyogenes serotype M1, UniProt P10520); experiment: S. pyogenes streptokinase expression inhibitors, potency, dose response, plasminogen activation absorbance, OD405 (AID 1914); format: functional, Streptococcus pyogenes M1 GAS;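 also: secreted streptokinase activity via plasminogen activation per viability signal from cell pellet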
T1 sequence (P10520 whole entry): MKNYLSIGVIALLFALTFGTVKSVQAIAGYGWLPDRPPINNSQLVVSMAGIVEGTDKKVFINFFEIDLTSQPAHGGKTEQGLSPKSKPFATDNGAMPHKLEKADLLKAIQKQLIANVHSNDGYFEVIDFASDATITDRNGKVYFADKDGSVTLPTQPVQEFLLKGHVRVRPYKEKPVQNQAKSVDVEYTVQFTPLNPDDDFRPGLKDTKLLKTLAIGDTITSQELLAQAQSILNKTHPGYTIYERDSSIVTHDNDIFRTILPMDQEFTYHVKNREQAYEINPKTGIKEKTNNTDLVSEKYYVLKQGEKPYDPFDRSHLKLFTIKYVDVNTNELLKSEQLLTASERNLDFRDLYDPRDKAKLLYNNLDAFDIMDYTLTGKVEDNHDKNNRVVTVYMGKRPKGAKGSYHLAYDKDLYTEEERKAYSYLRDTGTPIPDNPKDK

[2] = molecular target: T2, Heat shock factor protein 1 (Mus musculus, UniProt P38532); experiment: HSF1 potentiators in luciferase reporter cells, confirmation, cell-based, NIH3T3, luminescence, dose retest (AID 435004); format: functional;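 also: stress induced by proteasome inhibitor MG132 added 30 min after compound; luciferase reporter driven by HSF1 response element in NIH3T3 cells; actives raise luminescence as potentiators of the MG132 stress response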
T2 sequence (P38532 whole entry): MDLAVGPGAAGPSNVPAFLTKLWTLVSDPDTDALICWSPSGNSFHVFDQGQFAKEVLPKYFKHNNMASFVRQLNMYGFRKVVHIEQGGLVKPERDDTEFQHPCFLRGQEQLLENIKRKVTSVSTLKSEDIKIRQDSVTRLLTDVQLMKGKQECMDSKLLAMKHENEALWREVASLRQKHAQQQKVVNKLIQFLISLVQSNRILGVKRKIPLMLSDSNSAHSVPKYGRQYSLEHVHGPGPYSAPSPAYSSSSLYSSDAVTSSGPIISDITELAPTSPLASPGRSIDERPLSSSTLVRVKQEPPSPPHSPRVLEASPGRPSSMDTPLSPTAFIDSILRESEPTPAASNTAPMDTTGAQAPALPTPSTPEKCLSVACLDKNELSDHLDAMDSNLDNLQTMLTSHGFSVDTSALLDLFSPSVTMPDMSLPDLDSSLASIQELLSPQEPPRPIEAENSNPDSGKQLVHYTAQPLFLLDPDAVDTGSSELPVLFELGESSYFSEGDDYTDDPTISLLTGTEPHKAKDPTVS

[3] = molecular target: Photoreceptor-specific nuclear receptor (Homo sapiens, UniProt Q9Y5X4); format: functional;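 also: potency for compounds that break the NR2E3 corepressor complex and count as activators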
Photoreceptor-specific nuclear receptor, sequence (Q9Y5X4 whole entry): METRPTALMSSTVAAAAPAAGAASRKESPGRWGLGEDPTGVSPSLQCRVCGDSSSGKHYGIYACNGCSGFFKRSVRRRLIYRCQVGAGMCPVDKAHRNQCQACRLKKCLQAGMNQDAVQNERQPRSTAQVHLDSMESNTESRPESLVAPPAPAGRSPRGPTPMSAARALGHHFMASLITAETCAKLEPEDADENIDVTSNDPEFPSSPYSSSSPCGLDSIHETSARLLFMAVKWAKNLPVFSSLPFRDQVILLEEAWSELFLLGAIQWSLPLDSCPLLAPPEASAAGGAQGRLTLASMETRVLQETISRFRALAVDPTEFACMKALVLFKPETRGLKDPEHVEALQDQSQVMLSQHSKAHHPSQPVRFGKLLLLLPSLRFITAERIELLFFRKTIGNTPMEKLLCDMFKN

[4] = molecular target: T3, Alkaline phosphatase, tissue-nonspecific isozyme (Homo sapiens, UniProt P05186)
T3 sequence (P05186 whole entry): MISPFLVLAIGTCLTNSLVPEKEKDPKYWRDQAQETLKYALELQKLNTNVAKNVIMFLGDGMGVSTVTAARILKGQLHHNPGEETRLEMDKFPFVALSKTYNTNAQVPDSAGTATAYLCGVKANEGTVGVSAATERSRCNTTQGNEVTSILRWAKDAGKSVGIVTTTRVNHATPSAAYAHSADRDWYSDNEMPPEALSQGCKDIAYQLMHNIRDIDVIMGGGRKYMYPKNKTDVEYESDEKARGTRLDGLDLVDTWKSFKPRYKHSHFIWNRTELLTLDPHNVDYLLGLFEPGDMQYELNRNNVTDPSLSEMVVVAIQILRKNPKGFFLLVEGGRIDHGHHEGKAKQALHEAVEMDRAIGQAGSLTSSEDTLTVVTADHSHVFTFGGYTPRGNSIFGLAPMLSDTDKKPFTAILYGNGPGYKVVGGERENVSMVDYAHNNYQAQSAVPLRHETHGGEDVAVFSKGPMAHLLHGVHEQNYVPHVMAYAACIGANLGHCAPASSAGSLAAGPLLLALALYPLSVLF

[5] = molecular target: T4, Polyadenylate-binding protein 1 (Homo sapiens, UniProt P11940); experiment: PABP1 MLLE–PAM2 interaction inhibitors, dose response, miRNA deadenylation inhibitor project, biochemical, fluorescence polarization, Cy5-PAM2 peptide, secondary (AID 602260); format: functional; settings: read-out: IC50_Mean
T4 sequence (P11940 whole entry): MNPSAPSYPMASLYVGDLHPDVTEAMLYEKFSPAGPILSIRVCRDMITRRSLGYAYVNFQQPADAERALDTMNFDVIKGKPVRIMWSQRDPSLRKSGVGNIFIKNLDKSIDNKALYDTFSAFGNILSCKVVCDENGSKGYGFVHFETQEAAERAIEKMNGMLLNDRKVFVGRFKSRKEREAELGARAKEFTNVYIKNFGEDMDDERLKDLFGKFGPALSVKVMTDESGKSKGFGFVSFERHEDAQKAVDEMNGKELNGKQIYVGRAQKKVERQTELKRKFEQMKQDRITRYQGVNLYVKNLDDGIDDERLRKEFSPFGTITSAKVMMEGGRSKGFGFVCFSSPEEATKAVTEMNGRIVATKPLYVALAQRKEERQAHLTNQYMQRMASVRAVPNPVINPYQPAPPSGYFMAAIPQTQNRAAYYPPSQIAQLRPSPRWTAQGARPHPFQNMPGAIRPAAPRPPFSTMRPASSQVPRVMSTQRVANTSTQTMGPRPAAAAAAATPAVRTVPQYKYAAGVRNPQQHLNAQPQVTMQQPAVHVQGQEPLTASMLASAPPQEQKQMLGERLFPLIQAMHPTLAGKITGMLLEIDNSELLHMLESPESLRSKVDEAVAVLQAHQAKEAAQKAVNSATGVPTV

14-3-3 protein gamma = 14-3-3 protein gamma (Homo sapiens, UniProt P61981); experiment: modulators of 14-3-3 gamma client binding – dose response (AID 711); format: functional
[6] = molecular target: T4, Polyadenylate-binding protein 1; experiment: PABP1 MLLE–PAM2 binding inhibitor potency, dose response, biochemical, fluorescence polarization, FITC-PAM2 peptide (AID 602259); format: functional; settings: read-out: IC50_Mean
[7] = molecular target: T5, RNA-binding protein pos-1 (Caenorhabditis elegans, UniProt G5EF15); experiment: inhibitors of POS-1/mex-3 RNA binding, dose response, biochemical, fluorescence polarization (AID 1964);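 also: purified POS-1 fused to maltose binding protein made in E. coli; potency of compounds blocking POS-1 binding to fluorescent RNA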
T5 sequence (G5EF15 whole entry): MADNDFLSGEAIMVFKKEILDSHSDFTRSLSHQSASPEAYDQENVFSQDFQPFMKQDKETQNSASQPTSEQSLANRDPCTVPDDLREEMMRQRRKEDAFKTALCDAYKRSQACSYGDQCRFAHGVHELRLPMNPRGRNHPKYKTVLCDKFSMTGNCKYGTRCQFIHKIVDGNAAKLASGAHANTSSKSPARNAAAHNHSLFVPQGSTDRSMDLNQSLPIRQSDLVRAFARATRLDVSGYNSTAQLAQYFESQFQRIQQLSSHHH

Protein skinhead-1 = molecular target: T6, Protein skinhead-1 (Caenorhabditis elegans, UniProt P34707); format: functional
T6 sequence (P34707 whole entry): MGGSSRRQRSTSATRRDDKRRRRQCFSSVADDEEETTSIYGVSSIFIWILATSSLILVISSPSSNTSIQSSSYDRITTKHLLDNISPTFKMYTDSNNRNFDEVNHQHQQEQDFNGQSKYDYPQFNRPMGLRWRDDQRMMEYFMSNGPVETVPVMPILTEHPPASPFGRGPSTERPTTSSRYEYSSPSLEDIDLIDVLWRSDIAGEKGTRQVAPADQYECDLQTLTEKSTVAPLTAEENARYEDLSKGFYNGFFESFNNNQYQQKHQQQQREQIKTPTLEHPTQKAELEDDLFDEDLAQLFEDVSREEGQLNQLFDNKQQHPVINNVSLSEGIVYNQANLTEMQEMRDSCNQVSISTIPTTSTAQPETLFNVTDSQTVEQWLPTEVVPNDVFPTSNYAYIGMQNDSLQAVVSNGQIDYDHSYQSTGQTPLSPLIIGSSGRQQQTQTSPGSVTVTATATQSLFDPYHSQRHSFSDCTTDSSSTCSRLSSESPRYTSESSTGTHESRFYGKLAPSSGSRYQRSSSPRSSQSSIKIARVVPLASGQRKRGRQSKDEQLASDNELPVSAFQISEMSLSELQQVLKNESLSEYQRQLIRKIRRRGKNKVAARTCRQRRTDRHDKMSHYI

Protein Rev = Protein Rev (Human immunodeficiency virus type 1 group M subtype B (isolate HXB2)(HIV-1), UniProt P04618); experiment: inhibitors of Rev binding to RRE RNA, dose response, biochemical, fluorescence polarization, HIV-1 (AID 434976); set-up: species or system Human immunodeficiency virus 1
Protein Rev, sequence (P04618 whole entry): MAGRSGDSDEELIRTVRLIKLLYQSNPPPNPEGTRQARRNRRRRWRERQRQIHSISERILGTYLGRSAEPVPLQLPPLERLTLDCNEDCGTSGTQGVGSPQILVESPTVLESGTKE

[8] = molecular target: T7, Zinc finger protein mex-5 (Caenorhabditis elegans, UniProt Q9XUB2); experiment: MEX-5/TCR-2 RNA interaction inhibitors, dose response, biochemical, C. elegans, fluorescence polarization (AID 1960)
T7 sequence (Q9XUB2 whole entry): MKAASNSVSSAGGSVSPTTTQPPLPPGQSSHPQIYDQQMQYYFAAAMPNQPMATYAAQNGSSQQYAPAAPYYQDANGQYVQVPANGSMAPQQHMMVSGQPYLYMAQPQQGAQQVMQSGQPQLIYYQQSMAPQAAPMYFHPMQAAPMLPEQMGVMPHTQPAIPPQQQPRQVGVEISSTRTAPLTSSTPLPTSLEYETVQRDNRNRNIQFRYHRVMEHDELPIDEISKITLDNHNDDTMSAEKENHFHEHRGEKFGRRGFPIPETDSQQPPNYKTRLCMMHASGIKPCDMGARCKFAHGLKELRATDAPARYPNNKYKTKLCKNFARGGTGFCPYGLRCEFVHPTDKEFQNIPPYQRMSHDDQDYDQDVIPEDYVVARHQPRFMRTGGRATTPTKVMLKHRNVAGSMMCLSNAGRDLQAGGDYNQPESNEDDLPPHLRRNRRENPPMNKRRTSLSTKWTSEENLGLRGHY

[9] = molecular target: Female germline-specific tumor suppressor gld-1 (Caenorhabditis elegans, UniProt Q17339); experiment: inhibitors of GLD-1 binding to TGE RNA, dose response, biochemical, fluorescence polarization, C. elegans (AID 2802);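 also: fluorescence polarization of labeled TGE RNA bound by purified gld-1 protein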
[10] = molecular target: Peroxisome proliferator-activated receptor gamma/Nuclear receptor coactivator 3 (Homo sapiens, UniProt P37231); experiment: TR-FRET dose response biochemical High Throughput Screening assay for agonists of the steroid receptor coactivator 3 (SRC-3) recruitment by the peroxisome proliferator-activated receptor gamma (PPAR gamma): non-selective agonists. [Related pubchem assays: 1301 (Confirmation screen.), 1048 (Primary screen.)]; format: functional
[11] = molecular target: Peroxisome proliferator-activated receptor gamma/Nuclear receptor coactivator 2 (Homo sapiens, UniProt P37231); experiment: (§1) TR-FRET dose response biochemical High Throughput Screening assay for agonists of the steroid receptor coactivator 2 (SRC-2) recruitment by the peroxisome proliferator-activated receptor gamma (PPAR gamma): non-selective agonists. [Related pubchem assays: 1297, 1032 ]; format: functional
[12] = molecular target: Peroxisome proliferator-activated receptor gamma/Nuclear receptor coactivator 1 (Homo sapiens, UniProt P37231); experiment: as §1, with “1 (SRC-1)” for “2 (SRC-2)”, “assays (depositor defined):AID1300, AID1808, AID504735, AID631]” for “assays: 1297, 1032 ]”; format: protein assay
Hexokinase HKDC1 = molecular target: T8, Hexokinase HKDC1 (Homo sapiens, UniProt Q2TB90); experiment: HKDC1 hexokinase inhibitors, dose response, biochemical, W721R variant (AID 504729); format: functional
T8 sequence (Q2TB90 whole entry): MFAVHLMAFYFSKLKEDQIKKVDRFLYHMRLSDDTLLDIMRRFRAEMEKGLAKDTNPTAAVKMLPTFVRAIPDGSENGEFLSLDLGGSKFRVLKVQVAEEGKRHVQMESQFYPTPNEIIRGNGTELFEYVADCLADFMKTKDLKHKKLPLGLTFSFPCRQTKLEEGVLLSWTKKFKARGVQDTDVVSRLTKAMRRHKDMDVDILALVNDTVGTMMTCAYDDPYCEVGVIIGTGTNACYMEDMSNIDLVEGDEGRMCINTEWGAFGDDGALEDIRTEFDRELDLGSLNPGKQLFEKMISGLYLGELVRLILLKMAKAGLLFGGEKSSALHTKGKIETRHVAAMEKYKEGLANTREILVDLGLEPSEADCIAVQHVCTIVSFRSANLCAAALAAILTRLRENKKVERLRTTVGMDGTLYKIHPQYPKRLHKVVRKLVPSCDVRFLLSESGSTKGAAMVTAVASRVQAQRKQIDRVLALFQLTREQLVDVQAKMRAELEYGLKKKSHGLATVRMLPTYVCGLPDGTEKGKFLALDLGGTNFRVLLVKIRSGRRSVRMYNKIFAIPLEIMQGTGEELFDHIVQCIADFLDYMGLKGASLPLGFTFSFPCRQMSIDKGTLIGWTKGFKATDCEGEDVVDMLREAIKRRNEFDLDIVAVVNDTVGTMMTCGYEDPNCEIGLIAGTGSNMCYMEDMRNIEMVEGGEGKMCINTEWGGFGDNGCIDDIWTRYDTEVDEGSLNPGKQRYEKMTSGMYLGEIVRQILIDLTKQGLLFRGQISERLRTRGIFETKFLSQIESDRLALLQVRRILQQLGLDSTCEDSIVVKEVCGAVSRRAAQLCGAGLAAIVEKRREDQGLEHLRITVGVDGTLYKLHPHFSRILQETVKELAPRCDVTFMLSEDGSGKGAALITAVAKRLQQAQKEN

[13] = inhibitors of SNCA 5'UTR-driven reporter translation, confirmation, H4 neuroglioma cells, luminescence (AID 1988); format: functional, cell-based
[14] = Luminescence Cell-Based Dose Response HTS to Identify Inhibitors of 5'UTR Stem-Loop Driven Prion Protein mRNA Translation in H4 Neuroglioblastoma Cells. [Related pubchem assays: 1827 (Project Summary), 1813 (Primary HTS)]; format: functional
[15] = inhibitors of firefly luciferase expression or activity, dose response, H4 neuroglioma cells, luminescence (AID 1990); format: functional, cell-based
[16] = molecular target: Potassium voltage-gated channel subfamily KQT member 2 (Rattus norvegicus, UniProt O88943, W236L); experiment: KCNQ2 channel potentiators, dose response, mechanism study for KCNQ2 potentiator project, cell-based, automated electrophysiology (AID 2603); format: functional
Potassium voltage-gated channel subfamily KQT member 2, sequence (O88943 whole entry W236L): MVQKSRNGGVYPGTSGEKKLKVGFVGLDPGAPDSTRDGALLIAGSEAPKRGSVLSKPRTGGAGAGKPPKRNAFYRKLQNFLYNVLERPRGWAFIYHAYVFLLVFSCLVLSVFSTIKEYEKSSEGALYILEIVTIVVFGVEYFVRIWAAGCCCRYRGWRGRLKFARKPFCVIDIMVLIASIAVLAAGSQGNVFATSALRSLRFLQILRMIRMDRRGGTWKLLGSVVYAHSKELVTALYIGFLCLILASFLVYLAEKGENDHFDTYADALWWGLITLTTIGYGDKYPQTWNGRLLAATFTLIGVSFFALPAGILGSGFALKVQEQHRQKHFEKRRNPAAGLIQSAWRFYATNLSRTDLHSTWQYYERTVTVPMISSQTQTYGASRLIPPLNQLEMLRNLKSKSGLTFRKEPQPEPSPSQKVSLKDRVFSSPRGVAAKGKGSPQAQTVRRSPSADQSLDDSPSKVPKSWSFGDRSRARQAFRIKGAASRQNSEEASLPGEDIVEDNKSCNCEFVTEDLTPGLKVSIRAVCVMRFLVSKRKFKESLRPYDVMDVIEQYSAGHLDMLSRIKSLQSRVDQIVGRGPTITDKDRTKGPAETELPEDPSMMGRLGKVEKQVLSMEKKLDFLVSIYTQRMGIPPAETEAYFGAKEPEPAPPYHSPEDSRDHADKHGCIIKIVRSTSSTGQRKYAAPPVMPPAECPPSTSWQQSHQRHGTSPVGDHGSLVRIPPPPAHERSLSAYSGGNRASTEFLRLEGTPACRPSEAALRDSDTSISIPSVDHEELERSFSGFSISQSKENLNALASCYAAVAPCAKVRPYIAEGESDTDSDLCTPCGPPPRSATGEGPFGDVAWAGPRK

Peroxisome proliferator-activated receptor gamma/Nuclear receptor corepressor 2, sequence (P37231 whole entry): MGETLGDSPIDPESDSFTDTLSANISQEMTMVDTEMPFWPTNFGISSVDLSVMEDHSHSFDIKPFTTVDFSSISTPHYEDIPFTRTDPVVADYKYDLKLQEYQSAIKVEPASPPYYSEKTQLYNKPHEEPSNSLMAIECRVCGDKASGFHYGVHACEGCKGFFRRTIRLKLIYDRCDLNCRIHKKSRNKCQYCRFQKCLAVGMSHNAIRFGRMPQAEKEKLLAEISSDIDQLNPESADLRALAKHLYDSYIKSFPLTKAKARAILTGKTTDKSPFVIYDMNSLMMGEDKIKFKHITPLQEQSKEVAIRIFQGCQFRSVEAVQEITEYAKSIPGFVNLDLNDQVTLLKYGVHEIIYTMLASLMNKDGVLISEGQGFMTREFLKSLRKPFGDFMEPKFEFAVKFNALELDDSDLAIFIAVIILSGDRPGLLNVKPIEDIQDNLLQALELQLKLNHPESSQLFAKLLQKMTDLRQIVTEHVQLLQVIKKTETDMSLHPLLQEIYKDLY
Peroxisome proliferator-activated receptor gamma/Nuclear receptor corepressor 2, sequence (Q9Y618 whole entry): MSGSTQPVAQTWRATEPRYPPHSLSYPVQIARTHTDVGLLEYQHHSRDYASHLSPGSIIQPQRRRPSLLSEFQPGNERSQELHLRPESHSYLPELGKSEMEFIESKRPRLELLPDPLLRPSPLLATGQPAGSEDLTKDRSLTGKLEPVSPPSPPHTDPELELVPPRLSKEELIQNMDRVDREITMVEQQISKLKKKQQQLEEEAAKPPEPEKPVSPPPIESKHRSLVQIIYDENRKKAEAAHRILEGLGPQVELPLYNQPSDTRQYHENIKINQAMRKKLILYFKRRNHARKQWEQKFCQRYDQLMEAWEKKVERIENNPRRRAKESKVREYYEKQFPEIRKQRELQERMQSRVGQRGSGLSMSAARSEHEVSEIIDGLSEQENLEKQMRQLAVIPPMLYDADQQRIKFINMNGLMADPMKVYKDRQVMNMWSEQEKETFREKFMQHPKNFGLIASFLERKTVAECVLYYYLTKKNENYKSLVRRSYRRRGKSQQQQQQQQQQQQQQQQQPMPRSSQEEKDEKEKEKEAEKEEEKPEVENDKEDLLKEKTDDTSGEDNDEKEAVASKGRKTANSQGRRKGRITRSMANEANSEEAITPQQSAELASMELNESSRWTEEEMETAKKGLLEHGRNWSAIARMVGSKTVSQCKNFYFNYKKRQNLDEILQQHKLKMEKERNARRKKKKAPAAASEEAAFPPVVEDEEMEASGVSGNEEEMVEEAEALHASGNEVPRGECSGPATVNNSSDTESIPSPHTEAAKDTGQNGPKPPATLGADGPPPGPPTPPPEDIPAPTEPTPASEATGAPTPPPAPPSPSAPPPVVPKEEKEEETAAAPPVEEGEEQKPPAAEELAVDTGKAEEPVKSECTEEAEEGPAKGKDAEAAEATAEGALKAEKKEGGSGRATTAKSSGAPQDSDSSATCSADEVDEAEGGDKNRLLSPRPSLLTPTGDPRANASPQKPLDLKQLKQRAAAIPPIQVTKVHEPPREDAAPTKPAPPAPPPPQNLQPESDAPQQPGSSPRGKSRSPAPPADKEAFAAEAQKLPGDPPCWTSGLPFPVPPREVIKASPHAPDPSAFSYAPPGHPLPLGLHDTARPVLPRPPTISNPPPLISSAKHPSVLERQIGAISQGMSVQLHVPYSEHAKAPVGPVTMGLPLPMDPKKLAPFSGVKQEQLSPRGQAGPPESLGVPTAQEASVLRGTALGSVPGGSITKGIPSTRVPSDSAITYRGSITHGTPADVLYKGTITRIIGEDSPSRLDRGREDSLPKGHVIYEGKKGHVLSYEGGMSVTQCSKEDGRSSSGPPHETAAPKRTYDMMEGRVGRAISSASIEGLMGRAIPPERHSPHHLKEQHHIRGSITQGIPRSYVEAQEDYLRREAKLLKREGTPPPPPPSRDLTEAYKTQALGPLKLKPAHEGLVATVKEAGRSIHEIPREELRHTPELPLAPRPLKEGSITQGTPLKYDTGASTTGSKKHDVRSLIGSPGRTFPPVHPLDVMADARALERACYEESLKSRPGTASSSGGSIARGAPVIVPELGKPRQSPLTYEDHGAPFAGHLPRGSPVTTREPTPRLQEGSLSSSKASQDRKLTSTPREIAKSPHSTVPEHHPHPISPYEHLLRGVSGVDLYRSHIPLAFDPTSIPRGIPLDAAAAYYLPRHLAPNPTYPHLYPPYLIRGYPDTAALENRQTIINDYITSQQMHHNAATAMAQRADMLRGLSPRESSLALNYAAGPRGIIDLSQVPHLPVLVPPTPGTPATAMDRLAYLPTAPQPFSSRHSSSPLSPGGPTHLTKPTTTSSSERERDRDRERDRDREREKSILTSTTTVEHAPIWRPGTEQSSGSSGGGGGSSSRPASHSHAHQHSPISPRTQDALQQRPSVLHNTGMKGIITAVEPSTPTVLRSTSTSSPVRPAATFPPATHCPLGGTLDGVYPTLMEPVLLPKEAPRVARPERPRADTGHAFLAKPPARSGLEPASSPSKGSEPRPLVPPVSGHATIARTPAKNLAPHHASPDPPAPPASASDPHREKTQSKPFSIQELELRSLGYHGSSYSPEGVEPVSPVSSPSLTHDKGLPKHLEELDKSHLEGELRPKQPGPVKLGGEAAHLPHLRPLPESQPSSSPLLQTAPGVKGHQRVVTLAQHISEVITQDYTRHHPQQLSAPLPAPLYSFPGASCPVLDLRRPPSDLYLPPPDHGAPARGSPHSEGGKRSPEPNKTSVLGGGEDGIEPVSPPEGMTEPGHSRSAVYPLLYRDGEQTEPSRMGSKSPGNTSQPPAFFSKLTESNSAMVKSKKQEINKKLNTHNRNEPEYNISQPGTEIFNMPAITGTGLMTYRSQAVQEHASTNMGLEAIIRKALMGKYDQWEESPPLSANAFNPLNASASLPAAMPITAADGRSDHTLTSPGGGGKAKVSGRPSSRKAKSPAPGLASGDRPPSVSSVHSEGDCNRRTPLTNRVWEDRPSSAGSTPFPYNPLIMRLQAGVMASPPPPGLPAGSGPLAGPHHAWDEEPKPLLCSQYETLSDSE

Compound: S=c1[nH]c(SCc2ccccc2)nc2ccccc12
- IC50 [1]: 2.48 µM (active)
- EC50 (Streptokinase A): > 150 µM (not active)
- EC50 [2]: 227 µM (active)
- IC50 [3]: > 39.8 µM (not active)

Compound: COc1ccc(NC(=O)CSc2nc3ccccc3c3nc4ccccc4n23)cc1
- EC50 [4]: > 100 µM (not active)

Compound: COc1ccc(-c2nc(C[S+]([O-])CC(=O)NCc3ccccn3)c(C)o2)cc1 (stereo not given)
- IC50 [5]: > 66 µM (inactive)
- IC50 (14-3-3 protein gamma): 10.7 µM (active)
- IC50 [6]: 29.4 µM (inactive)
- EC50 [7]: 55.4 µM (active)
- IC50 (Protein skinhead-1): > 100 µM (inactive)
- IC50 (Protein Rev): 19.4 µM (not active)
- EC50 [8]: 30.5 µM (active)
- IC50 [9]: 5 µM (active)

Compound: O=C(CSc1ncnc2c1oc1ccccc12)c1cccs1
- IC50 [1]: 15.3 µM (not active)
- EC50 [10]: > 79.4 µM (not active)
- EC50 [11]: > 8.82 µM (not active)
- EC50 [12]: > 26.5 µM (inactive)
- IC50 [3]: > 39.8 µM (not active)

Compound: O=C(CSc1n[nH]c(-c2cccnc2)n1)Nc1ccc([N+](=O)[O-])cc1Br
- IC50 (Hexokinase HKDC1): 5.92 µM (active)

Compound: O=C(NCCc1ccccc1)c1cnn2c(C(F)F)cc(C3CC3)nc12
- EC50 [13]: > 120 µM (not active)
- IC50 (Hexokinase HKDC1): 5.5 µM (active)
- EC50 [14]: > 120 µM (not active)
- EC50 [15]: > 120 µM (not active)

Compound: C#CCn1/c(=N/C(=O)CSC(C)=O)sc2cc(F)ccc21
- EC50 [16]: 2.97 µM (active)

Compound: Oc1c(Cl)cc(Cl)cc1/C=N/c1nccs1
- EC50 [16]: 11.6 µM (active)
